Data: patent publication US20260356856A1, “KRAS G12S AND G12C INHIBITORS” (MIRATI THERAPEUTICS, INC., priority 2023, published 2026)

How the values were obtained:
[1] = molecular target: T1, KRas G12C (Homo sapiens, UniProt P01116, G12C); assay: KRas binding assay, TR-FRET displacement of Cy5 labelled tracer; settings: 60-minute incubation at room temperature, 1% DMSO, pH 7.5
T1 construct: Biotinylated KRas (corresponding to amino acids 1-169, produced at Accelegan Inc.); biotin (biotinylated); purchased Accelegan Inc
Procedure, shortened: (§1)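 Assay buffer was HEPES (50 mM, pH 7.5) with MgCl2 (5 mM), DTT (1 mM) and Tween-20 (0.005%). Biotinylated KRas spanning residues 1-169 met tracer, terbium streptavidin and compound (1% DMSO, final) for 60 minutes at ambient temperature before reading. POC values were fitted for IC50.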

[2] = molecular target: T2, KRas G12S (Homo sapiens, UniProt P01116, G12S); assay: as above; settings: 60-minute incubation at room temperature, 1% DMSO, pH 7.5
T2 construct: Biotinylated KRas (corresponding to amino acids 1-169, produced at Accelegan Inc.); biotin (biotinylated); purchased Accelegan Inc
Procedure, shortened: as §1

[3] = molecular target: T3, KRas WT (Homo sapiens, UniProt P01116); assay: as above; settings: 60-minute incubation at room temperature, 1% DMSO, pH 7.5
T3 construct: Biotinylated KRas (corresponding to amino acids 1-169, produced at Accelegan Inc.); biotin (biotinylated); purchased Accelegan Inc
Procedure, shortened: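 KRas aa 1-169, biotinylated; Tb-streptavidin donor; 1% DMSO final. Buffer: HEPES 50 mM (pH 7.5), MgCl2 5 mM, DTT 1 mM, Tween-20 0.005%. 60 min, RT. IC50 from 4-parameter fit of POC.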

[4] = molecular target: T4, KRas-mediated phosphorylation of ERK in MKN1 cells (Homo sapiens, UniProt P01116); assay: Inhibition of KRas-mediated phosphorylation of ERK (HTRF), MKN1 cells; format: cell-based; settings: MKN1 cells (KRas WT); HTRF pERK; 3 h incubation
T4 construct: pERK HTRF read-out
Experimental: Inhibition of KRas Phosphorylation of ERK (HTRF) by Exemplary Compounds of Formula (Ia) or (Ib)
Cisbio HTRF Advanced pERK Assay Catalog #64AERPEH • Cells: MKN1, PSN1 • Procedure: • 1. Day 1: Seed 6,000 cells/well −25 μl/well in 384-well white solid bottom plate; RPM1_10% FBS. Incubate overnight at 37 °C/5% CO2. • 2.

[5] = molecular target: T5, KRas-mediated phosphorylation of ERK in A549 cells (Homo sapiens, UniProt P01116, G12S); assay: Inhibition of KRas-mediated phosphorylation of ERK (HTRF), A549 cells; format: cell-based; settings: HTRF pERK, 3 h incubation
T5 construct: pERK HTRF read-out

[6] = molecular target: T6, KRas-mediated phosphorylation of ERK in H358 cells (Homo sapiens, UniProt P01116, G12C); assay: Inhibition of KRas-mediated phosphorylation of ERK (HTRF), H358 cells; format: cell-based; settings: HTRF pERK, 3 h incubation
T6 construct: pERK HTRF read-out
T6 sequence (P01116 1-188 isoform P01116-2 G12C): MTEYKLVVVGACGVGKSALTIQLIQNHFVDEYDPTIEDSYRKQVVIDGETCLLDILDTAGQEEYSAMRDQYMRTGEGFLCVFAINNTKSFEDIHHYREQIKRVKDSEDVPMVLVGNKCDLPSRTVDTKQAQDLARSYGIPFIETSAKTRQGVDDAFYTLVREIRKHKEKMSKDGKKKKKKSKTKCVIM

T4 sequence (P01116 1-188 isoform P01116-2): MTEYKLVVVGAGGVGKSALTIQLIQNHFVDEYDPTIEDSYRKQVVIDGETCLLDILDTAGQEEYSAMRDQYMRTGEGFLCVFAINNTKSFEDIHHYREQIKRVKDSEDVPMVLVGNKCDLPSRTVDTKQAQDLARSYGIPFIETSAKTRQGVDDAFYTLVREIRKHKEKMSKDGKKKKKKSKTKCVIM
T1 sequence (P01116 1-169 isoform P01116-2 G12C): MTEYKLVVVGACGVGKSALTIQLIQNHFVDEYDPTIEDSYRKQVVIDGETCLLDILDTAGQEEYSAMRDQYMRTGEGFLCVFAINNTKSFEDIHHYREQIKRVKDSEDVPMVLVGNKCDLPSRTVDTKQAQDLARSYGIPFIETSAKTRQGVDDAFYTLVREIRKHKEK
T2 sequence (P01116 1-169 isoform P01116-2 G12S): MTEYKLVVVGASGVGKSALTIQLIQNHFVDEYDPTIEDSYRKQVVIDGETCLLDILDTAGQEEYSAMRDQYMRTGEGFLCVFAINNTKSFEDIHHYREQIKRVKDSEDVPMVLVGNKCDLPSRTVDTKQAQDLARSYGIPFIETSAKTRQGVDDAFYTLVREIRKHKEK
T5 sequence (P01116 1-188 isoform P01116-2 G12S): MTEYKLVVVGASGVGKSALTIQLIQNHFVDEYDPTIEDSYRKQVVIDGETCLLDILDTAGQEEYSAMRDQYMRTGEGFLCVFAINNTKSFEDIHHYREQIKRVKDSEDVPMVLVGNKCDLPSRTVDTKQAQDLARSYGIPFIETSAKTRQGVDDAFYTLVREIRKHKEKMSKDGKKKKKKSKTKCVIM
T3 sequence (P01116 1-169 isoform P01116-2): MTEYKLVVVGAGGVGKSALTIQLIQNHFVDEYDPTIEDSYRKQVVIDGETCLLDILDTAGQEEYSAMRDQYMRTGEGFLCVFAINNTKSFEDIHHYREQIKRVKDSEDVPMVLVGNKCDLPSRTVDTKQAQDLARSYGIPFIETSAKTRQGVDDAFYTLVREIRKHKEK

SMILES	IC50 [1] [nM]	IC50 [2] [nM]	IC50 [3] [nM]	IC50 [4] [nM]	IC50 [5] [nM]	IC50 [6] [nM]
CC(=O)N(C)C(=O)C1CCCN(c2nc(OC[C@@]34CCCN3C[C@H](F)C4)nc3c(F)c(-c4ccc(F)c5sc(N)c(C#N)c45)c(Cl)cc23)CC1 (stereo partly drawn) [Example 255, N-acetyl-1-(7-(2-amino-3-cyano-7-fluorobenzo[b]thiophen-4-yl)-6-chloro-8-fluoro-2-(((2R,7aS)-2-fluorotetrahydro-1H-pyrrolizin-7a(5H)-yl)methoxy)quinazolin-4-yl)-N-methylazepane-4-carboxamide]	14	11	14	41	28	29
CCc1c(F)ccc2cc(O)cc(-c3ncc4c(N5CCC(C(=O)N(C)S(C)(=O)=O)CC5)nc(OC[C@@]56CCCN5C[C@H](F)C6)nc4c3F)c12 [Example 257, 1-(7-(8-ethyl-7-fluoro-3-hydroxynaphthalen-1-yl)-8-fluoro-2-(((2R,7aS)-2-fluorotetrahydro-1H-pyrrolizin-7a(5H)-yl)methoxy)pyrido[4,3-d]pyrimidin-4-yl)-N-methyl-N-(methylsulfonyl)piperidine-4-carboxamide]	5	499	214	726	677	21
CC(=O)N(C)C(=O)CCCNc1nc(OC[C@@]23CCCN2C[C@H](F)C3)nc2c(F)c(-c3ccc(F)c4sc(N)c(C#N)c34)c(Cl)cc12 [Example 258, N-acetyl-4-((7-(2-amino-3-cyano-7-fluorobenzo[b]thiophen-4-yl)-6-chloro-8-fluoro-2-(((2R,7aS)-2-fluorotetrahydro-1H-pyrrolizin-7a(5H)-yl)methoxy)quinazolin-4-yl)amino)-N-methylbutanamide]	3	4	9	84	29	38
CC(=O)N(C)C(=O)CCCN(C)c1nc(OC[C@@]23CCCN2C[C@H](F)C3)nc2c(F)c(-c3ccc(F)c4sc(N)c(C#N)c34)c(Cl)cc12 [Example 259, N-acetyl-4-((7-(2-amino-3-cyano-7-fluorobenzo[b]thiophen-4-yl)-6-chloro-8-fluoro-2-(((2R,7aS)-2-fluorotetrahydro-1H-pyrrolizin-7a(5H)-yl)methoxy)quinazolin-4-yl)(methyl)amino)-N-methylbutanamide]	3	3	8	125	19	80
CCc1c(F)ccc2cc(O)cc(-c3ncc4c(NCCCC(=O)N(C)C(C)=O)nc(OC[C@@]56CCCN5C[C@H](F)C6)nc4c3F)c12 [Example 261, N-acetyl-4-((7-(8-ethyl-7-fluoro-3-hydroxynaphthalen-1-yl)-8-fluoro-2-(((2R,7aS)-2-fluorotetrahydro-1H-pyrrolizin-7a(5H)-yl)methoxy)pyrido[4,3-d]pyrimidin-4-yl)amino)-N-methylbutanamide]	14	15	23	159	67	159
Cc1ccn(C(=O)CCCCNc2nc(OC[C@@]34CCCN3C[C@H](F)C4)nc3c(F)c(-c4ccc(F)c5sc(N)c(C#N)c45)c(Cl)cc23)n1 [Example 262, 2-amino-4-(6-chloro-8-fluoro-2-(((2R,7aS)-2-fluorotetrahydro-1H-pyrrolizin-7a(5H)-yl)methoxy)-4-((5-(3-methyl-1H-pyrazol-1-yl)-5-oxopentyl)amino)quinazolin-7-yl)-7-fluorobenzo[b]thiophene-3-carbonitrile]	15	25	25	593	381	1170
Cc1ccn(C(=O)C2CCCN(c3nc(OC[C@@]45CCCN4C[C@H](F)C5)nc4c(F)c(-c5c(I)ccc(N)c5C#N)c(Cl)cc34)CC2)n1 (stereo partly drawn) [Example 263, 6-amino-2-(6-chloro-8-fluoro-2-(((2R,7aS)-2-fluorotetrahydro-1H-pyrrolizin-7a(5H)-yl)methoxy)-4-(4-(3-methyl-1H-pyrazole-1-carbonyl)azepan-1-yl)quinazolin-7-yl)-3-iodobenzonitrile]	1720	490	2130	8920	495	> 10000
CCc1cc(O)cc2cccc(-c3c(Cl)cc4c(N5CCCC(C(=O)n6ccc(C)n6)CC5)nc(OC[C@@]56CCCN5C[C@H](F)C6)nc4c3F)c12 (stereo partly drawn) [Example 264, (1-(6-chloro-7-(8-ethyl-6-hydroxynaphthalen-1-yl)-8-fluoro-2-(((2R,7aS)-2-fluorotetrahydro-1H-pyrrolizin-7a(5H)-yl)methoxy)quinazolin-4-yl)azepan-4-yl)(3-methyl-1H-pyrazol-1-yl)methanone]	170	232	732	3490	138	847
CN(CCCC(=O)Oc1c(F)cccc1F)c1nc(OC[C@@]23CCCN2C[C@H](F)C3)nc2c(F)c(-c3ccc(F)c4sc(N)c(C#N)c34)c(Cl)cc12 [Example 265, 2,6-difluorophenyl 4-((7-(2-amino-3-cyano-7-fluorobenzo[b]thiophen-4-yl)-6-chloro-8-fluoro-2-(((2R,7aS)-2-fluorotetrahydro-1H-pyrrolizin-7a(5H)-yl)methoxy)quinazolin-4-yl)(methyl)amino)butanoate]	3	12	35	844	271	370
CN(CCCC(=O)N(C)c1cccnc1)c1nc(OC[C@@]23CCCN2C[C@H](F)C3)nc2c(F)c(-c3ccc(F)c4sc(N)c(C#N)c34)c(Cl)cc12 [Example 266, 4-((7-(2-amino-3-cyano-7-fluorobenzo[b]thiophen-4-yl)-6-chloro-8-fluoro-2-(((2R,7aS)-2-fluorotetrahydro-1H-pyrrolizin-7a(5H)-yl)methoxy)quinazolin-4-yl)(methyl)amino)-N-methyl-N-(pyridin-3-yl) butanamide]	5	9	10	236	410	58
CN(CCCC(=O)N(C)c1ccncc1)c1nc(OC[C@@]23CCCN2C[C@H](F)C3)nc2c(F)c(-c3ccc(F)c4sc(N)c(C#N)c34)c(Cl)cc12 [Example 267, 4-((7-(2-amino-3-cyano-7-fluorobenzo[b]thiophen-4-yl)-6-chloro-8-fluoro-2-(((2R,7aS)-2-fluorotetrahydro-1H-pyrrolizin-7a(5H)-yl)methoxy)quinazolin-4-yl)(methyl)amino)-N-methyl-N-(pyridin-4-yl) butanamide]	5	8	9	354	653	230
CN(CCCC(=O)N(C)c1ccncn1)c1nc(OC[C@@]23CCCN2C[C@H](F)C3)nc2c(F)c(-c3ccc(F)c4sc(N)c(C#N)c34)c(Cl)cc12 [Example 268, 4-((7-(2-amino-3-cyano-7-fluorobenzo[b]thiophen-4-yl)-6-chloro-8-fluoro-2-(((2R,7aS)-2-fluorotetrahydro-1H-pyrrolizin-7a(5H)-yl)methoxy)quinazolin-4-yl)(methyl)amino)-N-methyl-N-(pyrimidin-4-yl) butanamide]	5	9	11	205	266	75
